Data: ChEMBL document CHEMBL5678818, “Discovery of potent SOS1 inhibitors that block RAS activation via disruption of the RAS-SOS1 interaction” (Proc Natl Acad Sci U S A, 2019)

Legend:
[1] = tested on: Tyrosine-protein kinase ABL1 (Homo sapiens), P00519 [H396P]; experiment: Inhibition of phosphorylated ABL1 H396P mutant (unknown origin) assessed as residual activity at 1000 nM by KINOMEscan analysis relative to control
[2] = biological target: Tyrosine-protein kinase ABL1 (Homo sapiens) (UniProt P00519); experiment: Inhibition of nonphosphorylated ABL1 (unknown origin) assessed as residual activity at 1000 nM by KINOMEscan analysis relative to control
[3] = biological target: Serine/threonine-protein kinase/endoribonuclease IRE1 (Homo sapiens) (UniProt O75460); experiment: Inhibition of ERN1 (unknown origin) assessed as residual activity at 1000 nM by KINOMEscan analysis relative to control
[4] = biological target: T1, Dual specificity mitogen-activated protein kinase kinase 4 (Homo sapiens) (UniProt P45985); experiment: Inhibition of MEK4 (unknown origin) assessed as residual activity at 1000 nM by KINOMEscan analysis relative to control
T1 sequence (whole entry): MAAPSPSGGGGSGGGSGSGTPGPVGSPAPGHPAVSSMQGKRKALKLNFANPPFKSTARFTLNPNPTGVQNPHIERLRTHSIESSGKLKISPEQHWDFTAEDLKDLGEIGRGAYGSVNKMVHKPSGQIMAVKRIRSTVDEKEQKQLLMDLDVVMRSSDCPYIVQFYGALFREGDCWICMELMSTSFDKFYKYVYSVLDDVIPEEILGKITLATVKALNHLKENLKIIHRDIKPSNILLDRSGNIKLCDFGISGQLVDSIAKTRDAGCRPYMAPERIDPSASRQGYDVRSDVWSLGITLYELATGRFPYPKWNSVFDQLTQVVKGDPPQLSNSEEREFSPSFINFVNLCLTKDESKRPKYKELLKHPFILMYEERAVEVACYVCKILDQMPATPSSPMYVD

[5] = tested on: Phosphatidylinositol 4,5-bisphosphate 3-kinase catalytic subunit alpha isoform (Homo sapiens), P42336 [C420R]; experiment: Inhibition of PIK3CA C420R mutant (unknown origin) assessed as residual activity at 1000 nM by KINOMEscan analysis relative to control
[6] = biological target: Rho-associated protein kinase 1 (Homo sapiens) (UniProt Q13464); experiment: Inhibition of ROCK1 (unknown origin) assessed as residual activity at 1000 nM by KINOMEscan analysis relative to control
[7] = biological target: T2, Serine/threonine-protein kinase tousled-like 1 (Homo sapiens) (UniProt Q9UKI8); experiment: Inhibition of TLK1 (unknown origin) assessed as residual activity at 1000 nM by KINOMEscan analysis relative to control
T2 sequence (whole entry): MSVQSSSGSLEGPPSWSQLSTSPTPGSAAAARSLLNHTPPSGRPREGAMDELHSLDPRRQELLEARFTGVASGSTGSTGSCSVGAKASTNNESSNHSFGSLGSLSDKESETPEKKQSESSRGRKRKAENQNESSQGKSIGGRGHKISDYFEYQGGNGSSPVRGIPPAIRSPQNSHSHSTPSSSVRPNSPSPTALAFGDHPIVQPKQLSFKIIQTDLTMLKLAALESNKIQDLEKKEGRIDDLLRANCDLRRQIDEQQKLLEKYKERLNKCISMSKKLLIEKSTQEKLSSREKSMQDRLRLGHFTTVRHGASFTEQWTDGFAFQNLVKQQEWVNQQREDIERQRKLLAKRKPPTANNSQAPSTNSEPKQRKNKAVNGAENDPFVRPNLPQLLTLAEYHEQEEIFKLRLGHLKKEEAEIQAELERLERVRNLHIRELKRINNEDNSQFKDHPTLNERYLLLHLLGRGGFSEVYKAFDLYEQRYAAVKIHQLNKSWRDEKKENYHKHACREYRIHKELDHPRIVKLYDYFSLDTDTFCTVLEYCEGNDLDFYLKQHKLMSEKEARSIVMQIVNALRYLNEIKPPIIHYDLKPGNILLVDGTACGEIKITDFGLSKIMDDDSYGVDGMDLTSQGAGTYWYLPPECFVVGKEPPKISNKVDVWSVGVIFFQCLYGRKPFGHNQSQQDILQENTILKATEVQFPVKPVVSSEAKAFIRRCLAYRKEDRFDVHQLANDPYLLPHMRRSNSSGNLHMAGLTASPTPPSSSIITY

[8] = biological target: T3, Testis-specific serine/threonine-protein kinase 1 (Homo sapiens) (UniProt Q9BXA7); experiment: Inhibition of TSSK1B (unknown origin) assessed as residual activity at 1000 nM by KINOMEscan analysis relative to control
T3 sequence (whole entry): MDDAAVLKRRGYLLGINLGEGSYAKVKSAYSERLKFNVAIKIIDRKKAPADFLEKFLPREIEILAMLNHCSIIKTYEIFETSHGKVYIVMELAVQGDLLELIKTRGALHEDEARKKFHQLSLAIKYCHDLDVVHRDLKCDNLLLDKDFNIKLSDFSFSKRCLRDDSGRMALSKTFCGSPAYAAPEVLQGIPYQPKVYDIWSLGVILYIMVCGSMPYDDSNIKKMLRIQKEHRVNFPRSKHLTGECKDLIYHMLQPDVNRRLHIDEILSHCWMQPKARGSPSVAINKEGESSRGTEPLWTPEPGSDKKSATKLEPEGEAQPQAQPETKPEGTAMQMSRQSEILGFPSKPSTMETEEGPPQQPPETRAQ

[9] = biological target: T4, Tyrosine-protein kinase ZAP-70 (Homo sapiens) (UniProt P43403); experiment: Inhibition of ZAP70 (unknown origin) assessed as residual activity at 1000 nM by KINOMEscan analysis relative to control
T4 sequence (whole entry): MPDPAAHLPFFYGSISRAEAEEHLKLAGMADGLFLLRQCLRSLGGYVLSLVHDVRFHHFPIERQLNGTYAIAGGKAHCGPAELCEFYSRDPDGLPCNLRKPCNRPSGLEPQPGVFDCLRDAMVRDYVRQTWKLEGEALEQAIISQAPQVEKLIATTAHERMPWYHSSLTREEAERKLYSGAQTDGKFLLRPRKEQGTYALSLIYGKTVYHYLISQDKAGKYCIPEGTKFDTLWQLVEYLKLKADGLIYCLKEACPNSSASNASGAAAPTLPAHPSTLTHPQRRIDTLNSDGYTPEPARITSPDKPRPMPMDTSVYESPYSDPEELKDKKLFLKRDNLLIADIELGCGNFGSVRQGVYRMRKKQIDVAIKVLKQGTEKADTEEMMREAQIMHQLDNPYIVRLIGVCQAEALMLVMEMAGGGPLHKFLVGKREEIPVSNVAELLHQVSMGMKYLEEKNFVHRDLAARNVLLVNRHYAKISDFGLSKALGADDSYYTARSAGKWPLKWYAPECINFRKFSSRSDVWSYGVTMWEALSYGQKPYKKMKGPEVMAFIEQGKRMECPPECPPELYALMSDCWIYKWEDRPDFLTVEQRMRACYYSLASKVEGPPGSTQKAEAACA

Phosphatidylinositol 4,5-bisphosphate 3-kinase catalytic subunit alpha isoform (Homo sapiens), P42336 [C420R], sequence (P42336 whole entry C420R, canonical isoform): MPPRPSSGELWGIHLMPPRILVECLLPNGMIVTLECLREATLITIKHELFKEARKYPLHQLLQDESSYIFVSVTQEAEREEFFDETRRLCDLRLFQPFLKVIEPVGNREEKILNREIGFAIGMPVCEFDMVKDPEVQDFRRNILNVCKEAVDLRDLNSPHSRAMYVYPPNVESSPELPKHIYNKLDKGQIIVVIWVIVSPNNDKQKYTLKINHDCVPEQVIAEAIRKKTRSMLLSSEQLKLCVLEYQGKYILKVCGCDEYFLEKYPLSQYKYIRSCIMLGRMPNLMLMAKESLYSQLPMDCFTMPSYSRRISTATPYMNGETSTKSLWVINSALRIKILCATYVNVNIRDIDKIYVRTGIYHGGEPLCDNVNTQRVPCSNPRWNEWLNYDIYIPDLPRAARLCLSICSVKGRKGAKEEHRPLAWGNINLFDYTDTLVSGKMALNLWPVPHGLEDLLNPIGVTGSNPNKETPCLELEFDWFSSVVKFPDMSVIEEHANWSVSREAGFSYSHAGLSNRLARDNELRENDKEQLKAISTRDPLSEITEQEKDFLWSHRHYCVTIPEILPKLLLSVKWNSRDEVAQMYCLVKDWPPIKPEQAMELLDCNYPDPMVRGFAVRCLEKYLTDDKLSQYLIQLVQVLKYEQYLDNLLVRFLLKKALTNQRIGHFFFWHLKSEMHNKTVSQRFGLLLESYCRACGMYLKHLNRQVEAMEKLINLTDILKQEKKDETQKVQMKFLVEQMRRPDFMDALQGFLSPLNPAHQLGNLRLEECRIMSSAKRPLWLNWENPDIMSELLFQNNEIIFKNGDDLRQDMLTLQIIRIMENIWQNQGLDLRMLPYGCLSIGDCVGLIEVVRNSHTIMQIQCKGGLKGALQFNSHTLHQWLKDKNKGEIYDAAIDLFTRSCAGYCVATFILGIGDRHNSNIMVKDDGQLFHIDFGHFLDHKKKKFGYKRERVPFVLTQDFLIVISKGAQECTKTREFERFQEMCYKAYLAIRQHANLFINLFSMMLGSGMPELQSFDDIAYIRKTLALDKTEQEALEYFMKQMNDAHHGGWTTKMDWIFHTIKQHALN
Serine/threonine-protein kinase/endoribonuclease IRE1 (Homo sapiens), sequence (O75460 19-977 limits assumed): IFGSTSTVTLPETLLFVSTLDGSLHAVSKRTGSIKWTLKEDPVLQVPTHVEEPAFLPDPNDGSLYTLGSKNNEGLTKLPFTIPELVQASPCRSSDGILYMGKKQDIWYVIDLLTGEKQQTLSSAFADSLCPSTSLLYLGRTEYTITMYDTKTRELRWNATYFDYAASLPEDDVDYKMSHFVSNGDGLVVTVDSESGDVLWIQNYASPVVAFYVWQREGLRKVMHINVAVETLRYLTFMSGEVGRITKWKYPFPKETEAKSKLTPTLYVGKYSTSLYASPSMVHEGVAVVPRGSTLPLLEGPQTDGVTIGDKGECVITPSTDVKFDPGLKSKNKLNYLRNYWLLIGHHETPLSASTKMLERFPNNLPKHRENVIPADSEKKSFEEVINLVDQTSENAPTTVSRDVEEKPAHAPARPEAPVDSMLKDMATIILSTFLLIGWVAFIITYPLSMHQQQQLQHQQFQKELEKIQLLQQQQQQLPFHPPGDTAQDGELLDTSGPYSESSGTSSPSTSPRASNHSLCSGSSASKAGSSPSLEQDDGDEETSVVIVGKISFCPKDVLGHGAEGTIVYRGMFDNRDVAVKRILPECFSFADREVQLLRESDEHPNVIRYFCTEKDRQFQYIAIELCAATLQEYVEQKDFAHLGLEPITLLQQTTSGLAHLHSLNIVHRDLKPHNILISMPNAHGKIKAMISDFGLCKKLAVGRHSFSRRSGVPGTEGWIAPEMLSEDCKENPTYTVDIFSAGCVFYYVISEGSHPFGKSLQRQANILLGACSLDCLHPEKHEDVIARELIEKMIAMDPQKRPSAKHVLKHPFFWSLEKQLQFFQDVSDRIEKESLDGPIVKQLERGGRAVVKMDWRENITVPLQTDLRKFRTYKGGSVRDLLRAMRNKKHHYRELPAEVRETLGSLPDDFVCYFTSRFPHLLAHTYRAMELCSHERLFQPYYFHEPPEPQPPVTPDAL
Rho-associated protein kinase 1 (Homo sapiens), sequence (Q13464 2-1354 limits assumed): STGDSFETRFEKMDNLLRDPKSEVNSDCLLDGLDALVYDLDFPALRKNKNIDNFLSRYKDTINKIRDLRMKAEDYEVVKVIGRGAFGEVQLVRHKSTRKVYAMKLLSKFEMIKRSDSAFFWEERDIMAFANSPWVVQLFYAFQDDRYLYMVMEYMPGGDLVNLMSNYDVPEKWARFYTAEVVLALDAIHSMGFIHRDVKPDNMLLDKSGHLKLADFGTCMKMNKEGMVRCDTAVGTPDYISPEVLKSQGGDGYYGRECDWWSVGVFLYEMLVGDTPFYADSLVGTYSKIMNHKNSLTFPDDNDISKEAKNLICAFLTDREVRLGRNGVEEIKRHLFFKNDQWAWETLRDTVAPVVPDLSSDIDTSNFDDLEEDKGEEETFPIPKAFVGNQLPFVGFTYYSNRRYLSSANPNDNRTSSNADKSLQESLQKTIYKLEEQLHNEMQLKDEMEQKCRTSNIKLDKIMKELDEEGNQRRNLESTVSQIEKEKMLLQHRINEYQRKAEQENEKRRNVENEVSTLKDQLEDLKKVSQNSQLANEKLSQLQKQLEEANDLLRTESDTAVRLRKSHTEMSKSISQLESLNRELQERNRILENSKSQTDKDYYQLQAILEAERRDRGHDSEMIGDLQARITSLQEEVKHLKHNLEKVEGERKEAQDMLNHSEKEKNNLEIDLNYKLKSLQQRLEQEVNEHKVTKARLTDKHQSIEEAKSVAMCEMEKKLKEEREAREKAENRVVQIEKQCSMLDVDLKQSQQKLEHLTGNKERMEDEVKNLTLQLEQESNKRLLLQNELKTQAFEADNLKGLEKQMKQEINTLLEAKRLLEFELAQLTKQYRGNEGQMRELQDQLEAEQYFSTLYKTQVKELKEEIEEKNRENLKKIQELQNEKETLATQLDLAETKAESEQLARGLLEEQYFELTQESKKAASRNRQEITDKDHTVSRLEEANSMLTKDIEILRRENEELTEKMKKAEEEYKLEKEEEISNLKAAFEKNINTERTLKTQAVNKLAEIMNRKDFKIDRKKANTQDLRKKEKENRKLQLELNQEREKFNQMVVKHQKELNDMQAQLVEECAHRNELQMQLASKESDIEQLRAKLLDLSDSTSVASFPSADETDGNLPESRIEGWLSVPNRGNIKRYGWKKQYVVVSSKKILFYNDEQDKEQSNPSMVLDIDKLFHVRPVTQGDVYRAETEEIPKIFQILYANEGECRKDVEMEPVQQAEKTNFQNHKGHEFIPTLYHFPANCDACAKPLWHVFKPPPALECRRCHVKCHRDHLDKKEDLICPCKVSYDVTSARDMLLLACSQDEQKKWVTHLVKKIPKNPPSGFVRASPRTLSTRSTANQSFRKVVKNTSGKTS

SMILES	Activity [1] [%]	Activity [2] [%]	Activity [3] [%]	Activity [4] [%]	Activity [5] [%]	Activity [6] [%]	Activity [7] [%]	Activity [8] [%]	Activity [9] [%]
COc1cc2ncnc(N[C@H](C)c3cccc4ccccc34)c2cc1OC	93	100	92	97	82	88	100	100	97
COc1cc2nc(C)nc(N[C@H](C)c3cccc(-c4cn[nH]c4)c3)c2cc1OC	91	54	94	100	82	96	78	98	82
